# Reference: US6426355B1, “Heterocyclic carboxamide-containing thiourea inhibitors of herpes viruses containing phenylenediamine group” (American Home Products, priority 1998, dated 2002)
# Key:
# [1] = test system: HCMV recombinant mutant virus (RV145); test: HCMV microtiter plate assay (beta-glucuronidase reporter); assay type: cell-based, Human Cytomegalovirus; conditions: HCMV in human foreskin fibroblasts
# In short: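 Human foreskin fibroblasts were infected with RV145 in the presence of inhibitor. β-glucuronidase under a viral promoter served as the replication marker. At 96 h post-infection, lysates in pH 7.0 phosphate with Triton X-100/sarkosyl were assayed colorimetrically or fluorometrically, and IC50 was estimated from varying inhibitor amounts.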
# [2] = test system: HSV-1; test: HSV Antiviral (ELISA) assay; assay type: cell-based; conditions: HSV-1 in Vero cells
# In short: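 Vero cells in DMEM/2% FBS pretreated with compound 30 min before HSV-1 infection (MOI 0.006), then ~24 h at 37 °C. Viral gD detected by ELISA with β-galactosidase secondary and 4-methylumbelliferyl-galactoside (ex 365/em 450 nm); IC50 from fluorescence versus untreated infected cells.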
# [3] = test system: VZV strain Ellen; test: VZV Antiviral (ELISA) assay; assay type: cell-based; conditions: VZV strain Ellen in HFF cells; for % inhibition 10 ug/ml VZV: at 10 ug/ml
# In short: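 HFF cells infected with VZV Ellen at low multiplicity (<0.1) overnight were seeded at 3.5×10^4 cells/well in DMEM with 2% FBS plus compound and incubated three days at 37° C., 5% CO2. Viral replication was read by ELISA against glycoprotein II with β-galactosidase fluorogenic readout (ex 365/em 450 nm); IC50 relative to no-compound fluorescence.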
compound,measurement,setting,value
CC1CCCCN1CC(=O)Nc1ccc(NC(=S)Nc2ccc(NC(=O)c3ccco3)cc2)cc1Cl (stereo not shown) [Example 424],IC50 (ug/ml) HCMV,[1],0.09 µg/mL
same,IC50 (ug/ml) HSV,[2],3 µg/mL
same,IC50 (ug/ml) VZV,[3],0.7 µg/mL
same,% inhibition 10 ug/ml VZV,[3],103%
Nc1cccc(NC(=S)Nc2ccc(NC(=O)c3ccco3)cc2)c1 [Example 430],IC50 (ug/ml) HCMV,[1],0.4 µg/mL
same,IC50 (ug/ml) HSV,[2],>10 µg/mL
same,IC50 (ug/ml) VZV,[3],>10 µg/mL
O=C(Nc1ccc(NC(=S)Nc2cccc(C(F)(F)F)c2)cc1)c1ccco1 [Example 431],IC50 (ug/ml) HCMV,[1],0.06 µg/mL
same,IC50 (ug/ml) HSV,[2],>10 µg/mL
same,IC50 (ug/ml) VZV,[3],>10 µg/mL
Nc1cc(Cl)cc(NC(=S)Nc2ccc(NC(=O)c3ccco3)cc2)c1 [Example 435],IC50 (ug/ml) HCMV,[1],0.08 µg/mL
same,IC50 (ug/ml) HSV,[2],10 µg/mL
same,IC50 (ug/ml) VZV,[3],0.9 µg/mL
same,% inhibition 10 ug/ml VZV,[3],94%
Cc1cccc(NC(=S)Nc2ccc(NC(=O)c3ccco3)cc2)c1 [Example 436],IC50 (ug/ml) HCMV,[1],0.15 µg/mL
same,IC50 (ug/ml) HSV,[2],10 µg/mL
same,IC50 (ug/ml) VZV,[3],>10 µg/mL
O=C(Nc1ccc(NC(=S)Nc2ccc(NC(=O)c3ccccc3F)cc2)cc1Cl)OCCN1CCCCC1 [Example 438],IC50 (ug/ml) HCMV,[1],3 µg/mL
same,IC50 (ug/ml) HSV,[2],5 µg/mL
same,IC50 (ug/ml) VZV,[3],1.5 µg/mL
same,% inhibition 10 ug/ml VZV,[3],73%
O=C(Nc1ccc(NC(=S)Nc2ccc(NC(=O)c3ccco3)cc2)cc1Cl)OCCN1CCCCC1 [Example 439],IC50 (ug/ml) HCMV,[1],0.5 µg/mL
same,IC50 (ug/ml) HSV,[2],9 µg/mL
same,IC50 (ug/ml) VZV,[3],>10 µg/mL
same,% inhibition 10 ug/ml VZV,[3],46%
Nc1ccc(Cl)cc1NC(=S)Nc1ccc(NC(=O)c2ccco2)cc1 [Example 440],IC50 (ug/ml) HCMV,[1],0.3 µg/mL
same,IC50 (ug/ml) HSV,[2],1 µg/mL
same,IC50 (ug/ml) VZV,[3],9 µg/mL
N#Cc1cccc(NC(=S)Nc2ccc(NC(=O)c3ccco3)cc2)c1 [Example 441],IC50 (ug/ml) HCMV,[1],0.17 µg/mL
same,IC50 (ug/ml) HSV,[2],>10 µg/mL
same,IC50 (ug/ml) VZV,[3],>10 µg/mL
O=C(Nc1ccc(NC(=S)Nc2ccc(Cl)nc2)cc1)c1ccco1 [Example 445],IC50 (ug/ml) HCMV,[1],0.15 µg/mL
same,IC50 (ug/ml) HSV,[2],10 µg/mL
same,IC50 (ug/ml) VZV,[3],>10 µg/mL
Nc1c(Cl)cccc1NC(=S)Nc1ccc(NC(=O)c2ccco2)cc1 [Example 446],IC50 (ug/ml) HCMV,[1],0.7 µg/mL
same,IC50 (ug/ml) HSV,[2],10 µg/mL
same,IC50 (ug/ml) VZV,[3],>10 µg/mL
NNC(=O)c1cccc(NC(=S)Nc2ccc(NC(=O)c3ccco3)cc2)c1 [Example 447],IC50 (ug/ml) HCMV,[1],>10 µg/mL
same,IC50 (ug/ml) HSV,[2],>10 µg/mL
same,IC50 (ug/ml) VZV,[3],>10 µg/mL
NNC(=O)c1cccc(NC(=S)Nc2ccc(NC(=O)c3csnn3)cc2)c1 [Example 449],IC50 (ug/ml) HCMV,[1],1.6 µg/mL
same,IC50 (ug/ml) HSV,[2],>10 µg/mL
same,IC50 (ug/ml) VZV,[3],>10 µg/mL
CC(C)c1cccc(NC(=S)Nc2ccc(NC(=O)c3csnn3)cc2)c1 [Example 450],IC50 (ug/ml) HCMV,[1],0.05 µg/mL
same,IC50 (ug/ml) HSV,[2],>10 µg/mL
same,IC50 (ug/ml) VZV,[3],>10 µg/mL
CC(C)c1cccc(NC(=S)Nc2ccc(NC(=O)c3ccco3)cc2)c1 [Example 451],IC50 (ug/ml) HCMV,[1],0.15 µg/mL
same,IC50 (ug/ml) HSV,[2],8 µg/mL
same,IC50 (ug/ml) VZV,[3],>10 µg/mL
N#Cc1cccc(NC(=S)Nc2ccc(NC(=O)c3csnn3)cc2)c1 [Example 453],IC50 (ug/ml) HCMV,[1],0.07 µg/mL
same,IC50 (ug/ml) HSV,[2],>10 µg/mL
same,IC50 (ug/ml) VZV,[3],3 µg/mL
CN(C)c1cccc(NC(=S)Nc2ccc(NC(=O)c3ccco3)cc2)c1 [Example 455],IC50 (ug/ml) HCMV,[1],0.3 µg/mL
same,IC50 (ug/ml) HSV,[2],>10 µg/mL
same,IC50 (ug/ml) VZV,[3],>10 µg/mL
same,% inhibition 10 ug/ml VZV,[3],30%
Cc1cccc(NC(=S)Nc2ccc(NC(=O)c3csnn3)cc2)c1 [Example 456],IC50 (ug/ml) HCMV,[1],0.07 µg/mL
same,IC50 (ug/ml) HSV,[2],>10 µg/mL
same,IC50 (ug/ml) VZV,[3],>10 µg/mL
same,% inhibition 10 ug/ml VZV,[3],12%
O=C(Nc1ccc(NC(=S)Nc2cccc(C(F)(F)F)c2)cc1)c1csnn1 [Example 457],IC50 (ug/ml) HCMV,[1],0.019 µg/mL
same,IC50 (ug/ml) HSV,[2],>10 µg/mL
same,IC50 (ug/ml) VZV,[3],>10 µg/mL
same,% inhibition 10 ug/ml VZV,[3],26%
CC(=O)Nc1cccc(NC(=S)Nc2ccc(NC(=O)c3ccco3)cc2)c1 [Example 462],IC50 (ug/ml) HCMV,[1],1 µg/mL
same,IC50 (ug/ml) HSV,[2],>10 µg/mL
same,IC50 (ug/ml) VZV,[3],>10 µg/mL
same,% inhibition 10 ug/ml VZV,[3],6%
CC(O)c1cccc(NC(=S)Nc2ccc(NC(=O)c3csnn3)cc2)c1 (stereo not shown) [Example 464],IC50 (ug/ml) HCMV,[1],0.15 µg/mL
same,IC50 (ug/ml) HSV,[2],>10 µg/mL
same,IC50 (ug/ml) VZV,[3],>10 µg/mL
same,% inhibition 10 ug/ml VZV,[3],25%
Nc1cc(Cl)cc(NC(=S)Nc2ccc(NC(=O)c3csnn3)cc2)c1 [Example 466],IC50 (ug/ml) HCMV,[1],0.011 µg/mL
same,IC50 (ug/ml) HSV,[2],>10 µg/mL
same,IC50 (ug/ml) VZV,[3],>10 µg/mL
same,% inhibition 10 ug/ml VZV,[3],93%
COc1cc(NC(=S)Nc2ccc(NC(=O)c3ccco3)cc2)cc(OC)c1 [Example 467],IC50 (ug/ml) HCMV,[1],0.12 µg/mL
same,IC50 (ug/ml) HSV,[2],>10 µg/mL
same,IC50 (ug/ml) VZV,[3],>15 µg/mL
same,% inhibition 10 ug/ml VZV,[3],93%
COc1cc(NC(=S)Nc2ccc(NC(=O)c3csnn3)cc2)cc(OC)c1 [Example 468],IC50 (ug/ml) HCMV,[1],0.06 µg/mL
same,IC50 (ug/ml) HSV,[2],>10 µg/mL
same,IC50 (ug/ml) VZV,[3],>10 µg/mL
same,% inhibition 10 ug/ml VZV,[3],50%
COC(=O)c1cc(NC(=S)Nc2ccc(NC(=O)c3ccco3)cc2)cc(C(=O)OC)c1 [Example 469],IC50 (ug/ml) HCMV,[1],0.1 µg/mL
same,IC50 (ug/ml) HSV,[2],>10 µg/mL
same,IC50 (ug/ml) VZV,[3],>10 µg/mL
same,% inhibition 10 ug/ml VZV,[3],54%
COc1cc(OC)c(NC(=S)Nc2ccc(NC(=O)c3ccno3)cc2)cc1Cl [Example 470],IC50 (ug/ml) HCMV,[1],0.7 µg/mL
same,IC50 (ug/ml) HSV,[2],0.6 µg/mL
same,IC50 (ug/ml) VZV,[3],>10 µg/mL
same,% inhibition 10 ug/ml VZV,[3],17%
CC(O)c1cccc(NC(=S)Nc2ccc(NC(=O)c3ccco3)cc2)c1 (stereo not shown) [Example 472],IC50 (ug/ml) HCMV,[1],0.8 µg/mL
same,IC50 (ug/ml) HSV,[2],>10 µg/mL
same,IC50 (ug/ml) VZV,[3],>10 µg/mL
same,% inhibition 10 ug/ml VZV,[3],31%
COc1cccc(NC(=S)Nc2ccc(NC(=O)c3ccco3)cc2)c1 [Example 473],IC50 (ug/ml) HCMV,[1],0.3 µg/mL
same,IC50 (ug/ml) HSV,[2],>10 µg/mL
same,IC50 (ug/ml) VZV,[3],>10 µg/mL
same,% inhibition 10 ug/ml VZV,[3],40%
O=C(Nc1ccc(NC(=S)Nc2cccc(O)c2)cc1)c1ccco1 [Example 474],IC50 (ug/ml) HCMV,[1],1 µg/mL
same,IC50 (ug/ml) HSV,[2],>10 µg/mL
same,IC50 (ug/ml) VZV,[3],>10 µg/mL
same,% inhibition 10 ug/ml VZV,[3],22%
CC(=O)Nc1cccc(NC(=S)Nc2ccc(NC(=O)c3csnn3)cc2)c1 [Example 478],IC50 (ug/ml) HCMV,[1],0.4 µg/mL
same,IC50 (ug/ml) HSV,[2],>10 µg/mL
same,IC50 (ug/ml) VZV,[3],>10 µg/mL
same,% inhibition 10 ug/ml VZV,[3],31%
CN(C)c1cccc(NC(=S)Nc2ccc(NC(=O)c3csnn3)cc2)c1 [Example 479],IC50 (ug/ml) HCMV,[1],0.1 µg/mL
same,IC50 (ug/ml) HSV,[2],>10 µg/mL
same,IC50 (ug/ml) VZV,[3],>10 µg/mL
same,% inhibition 10 ug/ml VZV,[3],30%
O=C(Nc1ccc(NC(=S)Nc2ccc3[nH]ncc3c2)cc1)c1ccco1 [Example 481],IC50 (ug/ml) HCMV,[1],0.5 µg/mL
same,IC50 (ug/ml) HSV,[2],>10 µg/mL
same,IC50 (ug/ml) VZV,[3],>10 µg/mL
same,% inhibition 10 ug/ml VZV,[3],32%
O=C(Nc1ccc(NC(=S)Nc2ccc3scnc3c2)cc1)c1ccco1 [Example 482],IC50 (ug/ml) HCMV,[1],0.3 µg/mL
same,IC50 (ug/ml) HSV,[2],9 µg/mL
same,IC50 (ug/ml) VZV,[3],>10 µg/mL
same,% inhibition 10 ug/ml VZV,[3],33%
COC(=O)c1cc(NC(=S)Nc2ccc(NC(=O)c3csnn3)cc2)cc(C(=O)OC)c1 [Example 485],IC50 (ug/ml) HCMV,[1],0.03 µg/mL
same,IC50 (ug/ml) HSV,[2],>10 µg/mL
same,IC50 (ug/ml) VZV,[3],>10 µg/mL
same,% inhibition 10 ug/ml VZV,[3],11%
